Test results: US10660877B2 (BRISTOL-MYERS SQUIBB COMPANY, priority 2016, dated 2020)
Like-named read-outs stand apart in the source and are kept apart here.

Experiments:
human TLR8 = human TLR8 (Homo sapiens (Human), UniProt Q9NR97); assay: TLR8 inhibition reporter assay (HEK-Blue cells, SEAP reporter, R848 stimulation);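 note: compounds tested from 0.05 nM to 50 µM, 22 h at 37 °C, SEAP measured with HEK-Blue Detection, inhibition relative to agonist plus DMSO versus a known inhibitor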
human TLR9 = human TLR9 (Homo sapiens (Human), UniProt Q9NR96); assay: TLR9 inhibition reporter assay (HEK-Blue cells, SEAP reporter, ODN2006 stimulation);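 note: compounds tested over 0.05 nM to 50 µM, 22 h incubation, inhibition taken as SEAP signal drop from agonist plus DMSO wells toward a known inhibitor control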
human TLR7 = human TLR7 (Homo sapiens (Human), UniProt Q9NYK1); assay: TLR7 inhibition reporter assay (HEK-Blue cells, SEAP reporter, gardiquimod stimulation); assay type: cell-based; settings: HEK-Blue cells overexpressing human TLR7, gardiquimod 7.5 μM
[1] = read-out: TLR8 IC50, HEK-Blue cells overexpressing human TLR8, R848 15.9 μM
[2] = read-out: TLR9 IC50, HEK-Blue cells overexpressing human TLR9, ODN2006 5 nM
[3] = TLR8 IC50, HEK-Blue cells overexpressing human TLR8, R848 15.9 μM
[4] = TLR9 IC50, HEK-Blue cells overexpressing human TLR9, ODN2006 5 nM

human TLR9, sequence (Q9NR96 26-1032): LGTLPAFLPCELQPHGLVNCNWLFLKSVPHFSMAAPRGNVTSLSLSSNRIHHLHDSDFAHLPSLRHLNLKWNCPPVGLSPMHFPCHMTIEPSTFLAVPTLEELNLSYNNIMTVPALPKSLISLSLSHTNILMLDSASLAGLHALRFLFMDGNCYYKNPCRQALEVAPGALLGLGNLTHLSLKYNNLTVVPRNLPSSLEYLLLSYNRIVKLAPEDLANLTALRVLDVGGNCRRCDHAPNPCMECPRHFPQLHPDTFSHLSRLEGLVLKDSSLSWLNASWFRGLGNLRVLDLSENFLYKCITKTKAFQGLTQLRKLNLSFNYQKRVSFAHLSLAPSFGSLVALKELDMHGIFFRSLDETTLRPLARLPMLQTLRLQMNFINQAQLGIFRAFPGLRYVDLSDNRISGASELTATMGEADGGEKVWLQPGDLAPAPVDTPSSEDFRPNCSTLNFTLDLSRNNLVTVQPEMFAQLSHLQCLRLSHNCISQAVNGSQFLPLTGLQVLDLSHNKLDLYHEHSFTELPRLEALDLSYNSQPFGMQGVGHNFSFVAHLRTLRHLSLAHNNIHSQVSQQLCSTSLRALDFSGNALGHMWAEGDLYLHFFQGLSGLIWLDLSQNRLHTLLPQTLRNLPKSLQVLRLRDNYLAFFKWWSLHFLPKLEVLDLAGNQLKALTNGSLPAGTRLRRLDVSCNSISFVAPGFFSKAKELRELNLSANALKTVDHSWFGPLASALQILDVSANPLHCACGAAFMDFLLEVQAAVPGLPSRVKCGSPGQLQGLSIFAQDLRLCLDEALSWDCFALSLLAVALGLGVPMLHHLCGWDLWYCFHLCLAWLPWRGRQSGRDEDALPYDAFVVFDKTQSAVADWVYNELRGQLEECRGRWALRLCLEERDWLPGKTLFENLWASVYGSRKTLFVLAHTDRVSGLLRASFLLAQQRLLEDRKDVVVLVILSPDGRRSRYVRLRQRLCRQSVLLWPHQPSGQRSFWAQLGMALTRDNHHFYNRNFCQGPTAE
human TLR7, sequence (Q9NYK1 27-1049): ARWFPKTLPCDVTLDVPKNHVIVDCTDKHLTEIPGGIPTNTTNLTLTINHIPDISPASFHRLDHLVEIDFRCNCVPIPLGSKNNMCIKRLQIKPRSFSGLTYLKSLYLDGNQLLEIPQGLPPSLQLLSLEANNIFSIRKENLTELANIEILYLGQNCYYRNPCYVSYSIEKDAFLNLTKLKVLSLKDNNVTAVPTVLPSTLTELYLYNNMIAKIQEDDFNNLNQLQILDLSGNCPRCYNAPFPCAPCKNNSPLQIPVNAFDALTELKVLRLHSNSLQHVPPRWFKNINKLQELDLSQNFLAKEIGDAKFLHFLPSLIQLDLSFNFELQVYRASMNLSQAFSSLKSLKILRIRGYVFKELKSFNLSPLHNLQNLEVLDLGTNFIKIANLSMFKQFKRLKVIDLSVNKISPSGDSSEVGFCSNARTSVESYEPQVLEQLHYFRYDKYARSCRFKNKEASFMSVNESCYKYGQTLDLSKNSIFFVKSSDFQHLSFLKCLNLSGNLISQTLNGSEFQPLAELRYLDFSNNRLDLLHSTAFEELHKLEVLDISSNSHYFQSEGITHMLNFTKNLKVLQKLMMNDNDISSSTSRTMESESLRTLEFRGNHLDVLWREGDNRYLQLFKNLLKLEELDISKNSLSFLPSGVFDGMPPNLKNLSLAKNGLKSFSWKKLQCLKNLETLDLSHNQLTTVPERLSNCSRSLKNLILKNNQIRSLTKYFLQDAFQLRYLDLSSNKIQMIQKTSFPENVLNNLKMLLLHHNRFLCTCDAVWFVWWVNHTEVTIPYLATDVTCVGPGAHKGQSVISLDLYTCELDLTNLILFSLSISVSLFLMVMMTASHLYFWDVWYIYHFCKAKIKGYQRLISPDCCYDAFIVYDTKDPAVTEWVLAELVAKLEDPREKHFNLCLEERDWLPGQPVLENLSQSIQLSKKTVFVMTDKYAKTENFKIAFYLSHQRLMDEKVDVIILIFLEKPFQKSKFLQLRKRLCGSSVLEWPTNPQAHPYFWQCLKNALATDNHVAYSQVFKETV
human TLR8, sequence (Q9NR97 27-1041): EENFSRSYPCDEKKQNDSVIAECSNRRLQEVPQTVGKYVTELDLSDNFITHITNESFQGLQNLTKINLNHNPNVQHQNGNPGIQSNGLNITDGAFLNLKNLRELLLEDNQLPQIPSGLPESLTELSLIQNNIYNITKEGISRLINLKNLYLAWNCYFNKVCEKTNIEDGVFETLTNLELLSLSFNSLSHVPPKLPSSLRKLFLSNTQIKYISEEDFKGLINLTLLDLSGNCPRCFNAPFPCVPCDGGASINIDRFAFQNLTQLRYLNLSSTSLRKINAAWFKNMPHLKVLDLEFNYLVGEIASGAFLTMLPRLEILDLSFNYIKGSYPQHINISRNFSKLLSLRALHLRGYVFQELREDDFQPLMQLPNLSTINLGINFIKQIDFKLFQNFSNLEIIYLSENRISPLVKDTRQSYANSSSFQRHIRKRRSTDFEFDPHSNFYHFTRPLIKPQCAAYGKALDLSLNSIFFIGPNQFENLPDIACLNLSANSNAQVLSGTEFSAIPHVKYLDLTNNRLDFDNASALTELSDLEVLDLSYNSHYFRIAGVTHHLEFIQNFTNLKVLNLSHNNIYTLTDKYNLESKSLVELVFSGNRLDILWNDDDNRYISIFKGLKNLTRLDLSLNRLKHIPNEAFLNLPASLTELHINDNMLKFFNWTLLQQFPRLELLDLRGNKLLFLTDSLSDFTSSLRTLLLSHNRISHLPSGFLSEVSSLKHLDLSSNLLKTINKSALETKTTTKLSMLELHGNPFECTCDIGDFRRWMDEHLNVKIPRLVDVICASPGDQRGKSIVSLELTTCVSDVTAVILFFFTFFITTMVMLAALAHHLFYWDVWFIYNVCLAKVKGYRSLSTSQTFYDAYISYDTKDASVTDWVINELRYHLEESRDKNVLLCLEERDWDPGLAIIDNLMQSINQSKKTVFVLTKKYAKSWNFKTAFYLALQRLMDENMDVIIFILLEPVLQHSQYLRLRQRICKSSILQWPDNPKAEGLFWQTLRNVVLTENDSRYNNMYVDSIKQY

Q: What does the source list for Cc1cc(-c2[nH]c3ccc(C4CCN(C5CCCOC5)CC4)cc3c2C(C)C)c(C)cn1 (stereo not drawn) [Example 726, 2-(2,5-dimethylpyridin-4-yl)-3-isopropyl-5-(1-(tetrahydro-2H-pyran-3-yl)piperidin-4-yl)-1H-indole]?
A: IC50 (human TLR8; [1]): 0.0011 µM; IC50 (human TLR9; [2]): 1.45 µM; IC50 (human TLR7): 0.0142 µM

Q: With Cc1c(-c2[nH]c3ccc(C4CCNCC4)cc3c2C(C)C)ccnc1N [Example 11, 4-(3-isopropyl-5-(piperidin-4-yl)-1H-indol-2-yl)-3-methylpyridin-2-amine] as the compound, how does the IC50 (human TLR8; [3]) read?
A: 0.0906 µM

Q: And the IC50 (human TLR9; [4])?
A: 0.309 µM

Q: And the IC50 (human TLR7)?
A: 0.358 µM

Q: Which IC50 (human TLR8; [1]) does the source give for CNC(=O)CN1CCC(c2ccc3[nH]c(-c4cc(C)nc(F)c4)c(C(C)C)c3c2)CC1 [Example 498, 2-(4-(2-(2-fluoro-6-methylpyridin-4-yl)-3-isopropyl-1H-indol-5-yl)piperidin-1-yl)-N-methylacetamide] here?
A: 1.24 µM

Q: What about the IC50 (human TLR9; [2]) of the same compound?
A: 6.94 µM

Q: And the IC50 (human TLR7)?
A: 0.834 µM

Q: Which results are given for Cc1cc(-c2[nH]c3ccc(C4CCN(C(=O)c5cscn5)CC4)cc3c2C(C)C)ccn1 [Example 609, (4-(3-isopropyl-2-(2-methylpyridin-4-yl)-1H-indol-5-yl)piperidin-1-yl)(thiazol-4-yl)methanone]?
A: IC50 (human TLR8; [1]): 0.214 µM; IC50 (human TLR9; [2]): 21.5 µM; IC50 (human TLR7): 0.0382 µM

Q: Which IC50 (human TLR8; [1]) does the source give for Cc1cc(-c2[nH]c3ccc(C4CCN(C(=O)C5CCNCC5)CC4)cc3c2C(C)C)ccn1 [Example 573, (4-(3-isopropyl-2-(2-methylpyridin-4-yl)-1H-indol-5-yl)piperidin-1-yl)(piperidin-4-yl)methanone] here?
A: 0.0339 µM

Q: What about the IC50 (human TLR9; [2]) of the same compound?
A: 0.379 µM

Q: And the IC50 (human TLR7)?
A: 0.0129 µM

Q: Which results are given for CC(C)c1c(-c2cc(C3CC3)ncc2F)[nH]c2ccc(C3CCN(C(=O)CN(C)C)CC3)cc12 [Example 516, 1-(4-(2-(2-cyclopropyl-5-fluoropyridin-4-yl)-3-isopropyl-1H-indol-5-yl)piperidin-1-yl)-2-(dimethylamino)ethan-1-one]?
A: IC50 (human TLR8; [1]): 0.19 µM; IC50 (human TLR9; [2]): 1.46 µM; IC50 (human TLR7): 0.0121 µM

Q: Which results are given for Cc1cc(-c2[nH]c3ccc(C4CCN(Cc5ccncc5)CC4)cc3c2C(C)C)cc(C)n1 [Example 435, 2-(2,6-dimethylpyridin-4-yl)-3-isopropyl-5-(1-(pyridin-4-ylmethyl)piperidin-4-yl)-1H-indole]?
A: IC50 (human TLR8; [1]): 0.0042 µM; IC50 (human TLR9; [2]): 0.609 µM; IC50 (human TLR7): 0.0091 µM

Q: Which results are given for Cc1cc(-c2[nH]c3ccc(C4CCN(CC(C)O)CC4)cc3c2C(C)C)cc(C)n1 (stereo not drawn) [Example 331, 1-(4-(2-(2,6-dimethylpyridin-4-yl)-3-isopropyl-1H-indol-5-yl)piperidin-1-yl)propan-2-ol]?
A: IC50 (human TLR8; [1]): 0.0035 µM; IC50 (human TLR9; [2]): 0.566 µM; IC50 (human TLR7): 0.0024 µM

Q: For CCc1c(-c2ccnc(C)c2)[nH]c2ccc(C3CCN(C(=O)C4CCNCC4c4ccccc4)CC3)cc12 (stereo not drawn) [Example 627, (4-(3-ethyl-2-(2-methylpyridin-4-yl)-1H-indol-5-yl)piperidin-1-yl)(3-phenylpiperidin-4-yl)methanone], which IC50 (human TLR8; [1]) is on record?
A: 0.325 µM

Q: What about the IC50 (human TLR9; [2]) of the same compound?
A: 0.546 µM

Q: What about the IC50 (human TLR7) of the same compound?
A: 0.531 µM

Q: With Cc1cc(-c2[nH]c3ccc(C4CCN(CC(=O)N5CC[C@@H](O)C5)CC4)cc3c2C(C)C)cc(C)n1 [Example 275, (R)-2-(4-(2-(2,6-dimethylpyridin-4-yl)-3-isopropyl-1H-indol-5-yl)piperidin-1-yl)-1-(3-hydroxypyrrolidin-1-yl)ethan-1-one] as the compound, how does the IC50 (human TLR8; [3]) read?
A: 0.0068 µM

Q: What about the IC50 (human TLR9; [4]) of the same compound?
A: 0.067 µM

Q: What about the IC50 (human TLR7) of the same compound?
A: 0.0016 µM

Q: Which results are given for CCc1c(-c2ccnc(C)c2)[nH]c2ccc(C3CCN(C(=O)C4CC5(CCNCC5)C4)CC3)cc12 [Example 631, (4-(3-ethyl-2-(2-methylpyridin-4-yl)-1H-indol-5-yl)piperidin-1-yl)(7-azaspiro[3.5]nonan-2-yl)methanone]?
A: IC50 (human TLR8; [1]): 0.0368 µM; IC50 (human TLR9; [2]): 0.434 µM; IC50 (human TLR7): 0.0756 µM

Q: How did the IC50 (human TLR8; [1]) turn out when Cc1cc(-c2[nH]c3ccc(C4CCN(Cc5c[nH]c(C)n5)CC4)cc3c2C(C)C)cc(C)n1 [Example 426, 2-(2,6-dimethylpyridin-4-yl)-3-isopropyl-5-(1-((2-methyl-1H-imidazol-4-yl)methyl)piperidin-4-yl)-1H-indole] was run?
A: 0.0026 µM

Q: What about the IC50 (human TLR9; [2]) of the same compound?
A: 0.09 µM

Q: What about the IC50 (human TLR7) of the same compound?
A: 0.0061 µM

Q: With CC(C)c1c(-c2ccnc(N(C)C)c2)[nH]c2ccc(C3CCNCC3)cc12 [Example 24, 4-(3-isopropyl-5-(piperidin-4-yl)-1H-indol-2-yl)-N,N-dimethylpyridin-2-amine] as the compound, how does the IC50 (human TLR8; [1]) read?
A: 0.704 µM

Q: And the IC50 (human TLR9; [2])?
A: 1.69 µM

Q: What about the IC50 (human TLR7) of the same compound?
A: 1.48 µM

Q: With Cc1cc(-c2[nH]c3ccc(C4CCN(C(=O)Cn5cnnn5)CC4)cc3c2C(C)C)cc(C)n1 [Example 165, 1-(4-(2-(2,6-dimethylpyridin-4-yl)-3-isopropyl-1H-indol-5-yl)piperidin-1-yl)-2-(1H-tetrazol-1-yl)ethan-1-one] as the compound, how does the IC50 (human TLR8; [1]) read?
A: 0.0661 µM

Q: What about the IC50 (human TLR9; [2]) of the same compound?
A: 17.2 µM

Q: What about the IC50 (human TLR7) of the same compound?
A: 0.0133 µM

Q: For CNCCN1CCC(c2ccc3[nH]c(-c4ccncc4OC)c(C)c3c2)CC1 [Example 754, 2-(4-(2-(3-methoxypyridin-4-yl)-3-methyl-1H-indol-5-yl)piperidin-1-yl)-N-methylethan-1-amine], which IC50 (human TLR8; [1]) is on record?
A: 0.0275 µM

Q: What about the IC50 (human TLR9; [2]) of the same compound?
A: 0.325 µM

Q: And the IC50 (human TLR7)?
A: 5.86 µM

Q: Which IC50 (human TLR8; [1]) does the source give for Cc1cc(-c2[nH]c3ccc(C4CCN(Cc5nncn5C)CC4)cc3c2C(C)C)cc(C)n1 [Example 464, 2-(2,6-dimethylpyridin-4-yl)-3-isopropyl-5-(1-((4-methyl-4H-1,2,4-triazol-3-yl)methyl)piperidin-4-yl)-1H-indole] here?
A: 0.0063 µM

Q: And the IC50 (human TLR9; [2])?
A: 2.56 µM

Q: And the IC50 (human TLR7)?
A: 0.0063 µM

Q: For CCN(C)CC(=O)N1CCC(c2ccc3[nH]c(-c4cc(C)nc(C)c4)c(C(C)C)c3c2)CC1 [Example 356, 1-(4-(2-(2,6-dimethylpyridin-4-yl)-3-isopropyl-1H-indol-5-yl)piperidin-1-yl)-2-(ethyl(methyl)amino)ethan-1-one], which IC50 (human TLR8; [1]) is on record?
A: 0.0139 µM

Q: What about the IC50 (human TLR9; [2]) of the same compound?
A: 0.657 µM

Q: What about the IC50 (human TLR7) of the same compound?
A: 0.0033 µM

Q: What does the source list for Cc1cc(-c2[nH]c3ccc(C4CCN(C(=O)CN5CCOC5=O)CC4)cc3c2C(C)C)cc(C)n1 [Example 164, 3-(2-(4-(2-(2,6-dimethylpyridin-4-yl)-3-isopropyl-1H-indol-5-yl)piperidin-1-yl)-2-oxoethyl) oxazolidin-2-one]?
A: IC50 (human TLR8; [1]): 0.0397 µM; IC50 (human TLR9; [2]): 14.2 µM; IC50 (human TLR7): 0.0046 µM

Q: How did the IC50 (human TLR8; [1]) turn out when Cc1cc(-c2[nH]c3ccc(C4CCN(Cc5ncco5)CC4)cc3c2C(C)C)c(F)cn1 [Example 700, 2-((4-(2-(5-fluoro-2-methylpyridin-4-yl)-3-isopropyl-1H-indol-5-yl)piperidin-1-yl)methyl)oxazole] was run?
A: 0.016 µM

Q: And the IC50 (human TLR9; [2])?
A: > 50 µM

Q: What about the IC50 (human TLR7) of the same compound?
A: 0.0558 µM

Q: With COc1cc(-c2[nH]c3ccc(C4CCN(C5CCN(CC(C)C)CC5)CC4)cc3c2C(C)C)ccn1 [Example 803, 5-(1′-isobutyl-[1,4′-bipiperidin]-4-yl)-3-isopropyl-2-(2-methoxypyridin-4-yl)-1H-indole] as the compound, how does the IC50 (human TLR8; [1]) read?
A: 0.333 µM

Q: What about the IC50 (human TLR9; [2]) of the same compound?
A: 0.986 µM

Q: And the IC50 (human TLR7)?
A: 0.0797 µM

Q: What does the source list for Cc1cc(-c2[nH]c3ccc(C4CCN(C(=O)CN5CC(F)(F)C[C@H]5CO)CC4)cc3c2C(C)C)cc(C)n1 [Example 403, (S)-2-(4,4-difluoro-2-(hydroxymethyl)pyrrolidin-1-yl)-1-(4-(2-(2,6-dimethylpyridin-4-yl)-3-isopropyl-1H-indol-5-yl)piperidin-1-yl)ethan-1-one]?
A: IC50 (human TLR8; [1]): 0.209 µM; IC50 (human TLR9; [2]): 17.6 µM; IC50 (human TLR7): 0.0146 µM
